# Data: paper PMC5218480 (PLoS ONE, 2017)
# Tested on: MV-4-11 cells
# Assay: Gene expression microarray analysis (Affymetrix PrimeView) and GSEA
# Type: cell-based, human
# Design: RFU PODN (11730768_x_at) / Fold change /veh PODN (11730768_x_at) / RFU LINC00158 (11744669_a_at) / Fold change /veh LINC00158 (11744669_a_at) / RFU DUSP10 (11751237_a_at) / Fold change /veh DUSP10 (11751237_a_at) / RFU ID3 (11757404_x_at) / Fold change /veh ID3 (11757404_x_at) / RFU PLEKHG5 (11737974_s_at) / Fold change /veh PLEKHG5 (11737974_s_at) / RFU LRRC4B (11730491_at) / Fold change /veh LRRC4B (11730491_at) / RFU GIMAP4 (11747438_a_at) / Fold change /veh GIMAP4 (11747438_a_at) / RFU KRT8 (11758183_x_at) / Fold change /veh KRT8 (11758183_x_at) / RFU CNN1 (11734310_a_at) / Fold change /veh CNN1 (11734310_a_at) / RFU VPS37D (11726825_at) / Fold change /veh VPS37D (11726825_at) / RFU C10orf10 (11716522_x_at) / Fold change /veh C10orf10 (11716522_x_at) / RFU KIR2DL2 /// KIR2DL4 /// KIR2DL5A /// KIR2DL5B /// KIR2DS1 /// KIR2DS2 /// KIR2DS3 /// KIR2DS4 /// KIR3DL3 /// KIR3DL3 /// KIR3DS1 (11738374_at) / Fold change /veh KIR2DL2 /// KIR2DL4 /// KIR2DL5A /// KIR2DL5B /// KIR2DS1 /// KIR2DS2 /// KIR2DS3 /// KIR2DS4 /// KIR3DL3 /// KIR3DL3 /// KIR3DS1 (11738374_at) / RFU C1QL1 (11718748_at) / Fold change /veh C1QL1 (11718748_at) / RFU TMPRSS4 (11747572_a_at) / Fold change /veh TMPRSS4 (11747572_a_at) / RFU HAMP (11756126_x_at) / Fold change /veh HAMP (11756126_x_at) / RFU RNFT2 (11725882_a_at) / Fold change /veh RNFT2 (11725882_a_at) / RFU NR4A2 (11747474_a_at) / Fold change /veh NR4A2 (11747474_a_at) / RFU ABCC12 (11746883_a_at) / Fold change /veh ABCC12 (11746883_a_at) / RFU TMEM136 (11760407_x_at) / Fold change /veh TMEM136 (11760407_x_at) / RFU CLDN22 /// WWC2 (11732394_at) / Fold change /veh CLDN22 /// WWC2 (11732394_at) / RFU HLA-DPB1 (11760878_x_at) / Fold change /veh HLA-DPB1 (11760878_x_at) / RFU SPINT1 (11716480_a_at) / Fold change /veh SPINT1 (11716480_a_at) / RFU GAP43 (11754022_s_at) / Fold change /veh GAP43 (11754022_s_at) / RFU A4GNT (11735810_at) / Fold change /veh A4GNT (11735810_at) / RFU PRB3 (11715151_x_at) / Fold change /veh PRB3 (11715151_x_at) / RFU TUBB4B (11761932_at) / Fold change /veh TUBB4B (11761932_at) / RFU CAPN14 (11732068_a_at) / Fold change /veh CAPN14 (11732068_a_at) / RFU TMCC2 (11721928_a_at) / Fold change /veh TMCC2 (11721928_a_at) / RFU IRGQ (11745062_a_at) / Fold change /veh IRGQ (11745062_a_at) / RFU FAM174B (11720279_a_at) / Fold change /veh FAM174B (11720279_a_at) / RFU TMPRSS4 (11748680_a_at) / Fold change /veh TMPRSS4 (11748680_a_at) / RFU FAM212B (11763350_a_at) / Fold change /veh FAM212B (11763350_a_at) / RFU PLEKHG5 (11743358_a_at) / Fold change /veh PLEKHG5 (11743358_a_at) / RFU ZSCAN30 (11745921_a_at) / Fold change /veh ZSCAN30 (11745921_a_at) / RFU CMKLR1 (11741424_a_at) / Fold change /veh CMKLR1 (11741424_a_at) / RFU LOC101060620 /// MAPK8IP1 (11723275_at) / Fold change /veh LOC101060620 /// MAPK8IP1 (11723275_at) / RFU SPTSSB (11747773_x_at) / Fold change /veh SPTSSB (11747773_x_at) / RFU PRSS12 (11739890_at) / Fold change /veh PRSS12 (11739890_at) / RFU BIN1 (11741810_x_at) / Fold change /veh BIN1 (11741810_x_at) / RFU WNT11 (11732464_a_at) / Fold change /veh WNT11 (11732464_a_at) / RFU C10orf10 (11716521_a_at) / Fold change /veh C10orf10 (11716521_a_at) / RFU C5orf56 (11738089_at) / Fold change /veh C5orf56 (11738089_at) / RFU CYB561 (11721691_x_at) / Fold change /veh CYB561 (11721691_x_at) / RFU ANKRD19P (11752326_a_at) / Fold change /veh ANKRD19P (11752326_a_at) / RFU OR2T12 /// OR2T33 /// OR2T8 (11738714_s_at) / Fold change /veh OR2T12 /// OR2T33 /// OR2T8 (11738714_s_at) / RFU VCAN (11748164_a_at) / Fold change /veh VCAN (11748164_a_at) / RFU JSRP1 (11732532_at) / Fold change /veh JSRP1 (11732532_at) / RFU KRTAP10-11 (11738290_x_at) / Fold change /veh KRTAP10-11 (11738290_x_at) / RFU MYO3A (11730013_a_at) / Fold change /veh MYO3A (11730013_a_at) / RFU EBF3 (11725865_a_at) / Fold change /veh EBF3 (11725865_a_at) / RFU CAMK2N1 (11719241_x_at) / Fold change /veh CAMK2N1 (11719241_x_at) / RFU C5orf56 (11738088_a_at) / Fold change /veh C5orf56 (11738088_a_at) / RFU OLFML3 (11715873_a_at) / Fold change /veh OLFML3 (11715873_a_at) / RFU LOC100653217 /// NTM (11731650_a_at) / Fold change /veh LOC100653217 /// NTM (11731650_a_at) / RFU MAPK11 (11762145_a_at) / Fold change /veh MAPK11 (11762145_a_at) / RFU FIZ1 (11724087_x_at) / Fold change /veh FIZ1 (11724087_x_at) / RFU OASL (11726364_x_at) / Fold change /veh OASL (11726364_x_at) / RFU SOX15 (11748057_x_at) / Fold change /veh SOX15 (11748057_x_at) / RFU CD79A (11719716_a_at) / Fold change /veh CD79A (11719716_a_at) / RFU HIST1H1D (11736915_at) / Fold change /veh HIST1H1D (11736915_at) / RFU CASKIN2 (11723855_a_at) / Fold change /veh CASKIN2 (11723855_a_at) / RFU LOC730098 (11760151_x_at) / Fold change /veh LOC730098 (11760151_x_at) / RFU OR4N2 (11742367_at) / Fold change /veh OR4N2 (11742367_at) / RFU PRRT2 (11749266_a_at) / Fold change /veh PRRT2 (11749266_a_at) / RFU SNX32 (11753110_a_at) / Fold change /veh SNX32 (11753110_a_at) / RFU CDHR5 (11726645_a_at) / Fold change /veh CDHR5 (11726645_a_at) / RFU RCAN1 (11760418_a_at) / Fold change /veh RCAN1 (11760418_a_at) / RFU FAM167A (11723789_a_at) / Fold change /veh FAM167A (11723789_a_at) / RFU FAM26E (11764081_at) / Fold change /veh FAM26E (11764081_at) / RFU ISYNA1 (11749810_s_at) / Fold change /veh ISYNA1 (11749810_s_at) / RFU ACY1 (11761880_at) / Fold change /veh ACY1 (11761880_at) / RFU 11764098_at / Fold change /veh 11764098_at / RFU SAMD14 (11745864_x_at) / Fold change /veh SAMD14 (11745864_x_at) / RFU NPB (11741838_a_at) / Fold change /veh NPB (11741838_a_at) / RFU TMPRSS6 (11731388_a_at) / Fold change /veh TMPRSS6 (11731388_a_at) / RFU KRTAP10-2 (11738614_at) / Fold change /veh KRTAP10-2 (11738614_at) / RFU ARHGAP8 /// PRR5-ARHGAP8 (11727945_x_at) / Fold change /veh ARHGAP8 /// PRR5-ARHGAP8 (11727945_x_at) / RFU KRTAP5-7 /// NADSYN1 (11734609_at) / Fold change /veh KRTAP5-7 /// NADSYN1 (11734609_at) / RFU RASL12 (11751679_a_at) / Fold change /veh RASL12 (11751679_a_at) / RFU CDKN2B (11736163_a_at) / Fold change /veh CDKN2B (11736163_a_at) / RFU PRF1 (11729649_at) / Fold change /veh PRF1 (11729649_at) / RFU, ZNF638 /// ZNF638-IT1 / Fold change vs veh, ZNF638 /// ZNF638-IT1 / RFU, PANK3 / Fold change vs veh, PANK3 / RFU, SH3YL1 / Fold change vs veh, SH3YL1 / RFU, ZEB2 / Fold change vs veh, ZEB2 / RFU, NRIP1 / Fold change vs veh, NRIP1 / RFU, PTTG1IP / Fold change vs veh, PTTG1IP / RFU, CAPN2 / Fold change vs veh, CAPN2 / RFU, MED14 / Fold change vs veh, MED14 / RFU, SNORA58 / Fold change vs veh, SNORA58 / RFU, C1orf63 / Fold change vs veh, C1orf63 / RFU, LRRFIP1 / Fold change vs veh, LRRFIP1 / RFU, NDUFAF7 / Fold change vs veh, NDUFAF7 / RFU, SLC12A2 / Fold change vs veh, SLC12A2 / RFU, IBTK / Fold change vs veh, IBTK / RFU, ESF1 / Fold change vs veh, ESF1 / Fold change vs veh, TMEM50B / RFU, TAOK1 / Fold change vs veh, TAOK1 / RFU, ACBD3 / Fold change vs veh, ACBD3 / RFU, TMA16 / Fold change vs veh, TMA16 / RFU, RWDD3 / Fold change vs veh, RWDD3 / RFU, BCAT1 / Fold change vs veh, BCAT1 / RFU, EDEM3 / Fold change vs veh, EDEM3 / RFU, TMEM33 / Fold change vs veh, TMEM33 / RFU, WDR75 / Fold change vs veh, WDR75 / RFU, AHCTF1 / Fold change vs veh, AHCTF1 / RFU, TFRC / Fold change vs veh, TFRC / RFU, ZDHHC17 / Fold change vs veh, ZDHHC17 / RFU, NOM1 / Fold change vs veh, NOM1 / RFU, ARL8B / Fold change vs veh, ARL8B / RFU, ZBTB11 / Fold change vs veh, ZBTB11 / RFU, TAMM41 / Fold change vs veh, TAMM41 / RFU, KIAA1704 /// LOC100996395 / Fold change vs veh, KIAA1704 /// LOC100996395 / RFU, ING1 / Fold change vs veh, ING1 / RFU, TRMT61B / Fold change vs veh, TRMT61B / RFU, FUBP3 / Fold change vs veh, FUBP3 / RFU, TP53 / Fold change vs veh, TP53 / RFU, TNKS2 / Fold change vs veh, TNKS2 / RFU, ZFP14 / Fold change vs veh, ZFP14 / RFU, ACTR2 / Fold change vs veh, ACTR2 / RFU, PPP3R1 / Fold change vs veh, PPP3R1 / RFU, PIK3R1 / Fold change vs veh, PIK3R1 / RFU, HNRNPA1 / Fold change vs veh, HNRNPA1 / RFU, RNF170 / Fold change vs veh, RNF170 / RFU, ZNF28 / Fold change vs veh, ZNF28 / RFU, RNGTT / Fold change vs veh, RNGTT / RFU, OGT / Fold change vs veh, OGT / RFU, BRD1 / Fold change vs veh, BRD1 / RFU, MARS / Fold change vs veh, MARS / RFU, ZNF655 / Fold change vs veh, ZNF655 / RFU, FAHD1 / Fold change vs veh, FAHD1 / RFU, BDP1 / Fold change vs veh, BDP1 / RFU, LRRCC1 / Fold change vs veh, LRRCC1 / RFU, ARID1A / Fold change vs veh, ARID1A / RFU, ZNF146 / Fold change vs veh, ZNF146 / RFU, ZNF330 / Fold change vs veh, ZNF330 / RFU, GPN3 / Fold change vs veh, GPN3 / RFU, C9orf123 / Fold change vs veh, C9orf123 / RFU, N4BP2L2 / Fold change vs veh, N4BP2L2 / RFU, ARFIP1 / Fold change vs veh, ARFIP1 / RFU, FAM179B / Fold change vs veh, FAM179B / RFU, BCL10 / Fold change vs veh, BCL10 / RFU, UHRF1BP1L / Fold change vs veh, UHRF1BP1L / RFU, BET1 / Fold change vs veh, BET1 / RFU, CNOT2 / Fold change vs veh, CNOT2 / RFU, ZNF268 / Fold change vs veh, ZNF268 / Fold change vs veh, ZNF507 / RFU, DGCR2 / Fold change vs veh, DGCR2 / RFU, WDSUB1 / Fold change vs veh, WDSUB1 / Fold change vs veh, HSP90B1 /// MIR3652 / RFU, ADSS / Fold change vs veh, ADSS / RFU, GK / Fold change vs veh, GK / RFU, ZNF148 / Fold change vs veh, ZNF148 / RFU, TAF9 / Fold change vs veh, TAF9 / RFU, SLC1A5 / Fold change vs veh, SLC1A5 / RFU, SLMO2 / Fold change vs veh, SLMO2 / RFU, ABCC4 / Fold change vs veh, ABCC4 / RFU, LOC101060439 /// RAP1B / Fold change vs veh, LOC101060439 /// RAP1B / RFU, RFX7 / Fold change vs veh, RFX7 / RFU, GTPBP10 / Fold change vs veh, GTPBP10 / RFU, CNEP1R1 / Fold change vs veh, CNEP1R1 / RFU, BIVM-ERCC5 /// ERCC5 / Fold change vs veh, BIVM-ERCC5 /// ERCC5 / RFU, ILF3 / Fold change vs veh, ILF3 / RFU 11762660_at / Fold change /veh 11762660_at / RFU VCAN (11757783_s_at) / Fold change /veh VCAN (11757783_s_at) / RFU DDX43 (11728927_at) / Fold change /veh DDX43 (11728927_at) / RFU KRT8 (11758188_x_at) / Fold change /veh KRT8 (11758188_x_at) / RFU NKD1 (11759106_at) / Fold change /veh NKD1 (11759106_at) / RFU SRD5A1 (11742802_a_at) / Fold change /veh SRD5A1 (11742802_a_at) / RFU TPSAB1 /// TPSB2 (11721975_s_at) / Fold change /veh TPSAB1 /// TPSB2 (11721975_s_at) / RFU GSTM3 (11746129_a_at) / Fold change /veh GSTM3 (11746129_a_at) / RFU IL23R (11737362_x_at) / Fold change /veh IL23R (11737362_x_at) / RFU TMEM51 (11727254_a_at) / Fold change /veh TMEM51 (11727254_a_at) / RFU PIWIL2 (11732686_x_at) / Fold change /veh PIWIL2 (11732686_x_at) / RFU ORM1 (11744905_x_at) / Fold change /veh ORM1 (11744905_x_at) / RFU CCDC152 (11743942_at) / Fold change /veh CCDC152 (11743942_at) / RFU ECM1 (11717891_a_at) / Fold change /veh ECM1 (11717891_a_at) / RFU IL23R (11748794_a_at) / Fold change /veh IL23R (11748794_a_at) / RFU TNFAIP8L3 (11732012_x_at) / Fold change /veh TNFAIP8L3 (11732012_x_at) / RFU MBOAT4 (11741988_at) / Fold change /veh MBOAT4 (11741988_at) / RFU 11764193_at / Fold change /veh 11764193_at / RFU TMEM53 (11763286_at) / Fold change /veh TMEM53 (11763286_at) / RFU MAGEB2 (11727129_at) / Fold change /veh MAGEB2 (11727129_at) / RFU TMEM200A (11744735_a_at) / Fold change /veh TMEM200A (11744735_a_at) / RFU CCDC152 (11751479_a_at) / Fold change /veh CCDC152 (11751479_a_at) / RFU FAM211A (11726209_a_at) / Fold change /veh FAM211A (11726209_a_at) / RFU RGS16 (11746705_a_at) / Fold change /veh RGS16 (11746705_a_at) / RFU VCAN (11755009_s_at) / Fold change /veh VCAN (11755009_s_at) / RFU RHOB (11743442_s_at) / Fold change /veh RHOB (11743442_s_at) / RFU RGS16 (11720943_a_at) / Fold change /veh RGS16 (11720943_a_at) / RFU RGS16 (11720944_at) / Fold change /veh RGS16 (11720944_at) / RFU, VPS4B / Fold change vs veh, VPS4B / RFU, CREB1 / Fold change vs veh, CREB1 / RFU, DNAJC13 / Fold change vs veh, DNAJC13 / RFU, GNAQ / Fold change vs veh, GNAQ / RFU, CDK5R1 / Fold change vs veh, CDK5R1 / RFU, ZRANB3 / Fold change vs veh, ZRANB3 / RFU, CUL4A / Fold change vs veh, CUL4A / RFU, CCNY / Fold change vs veh, CCNY / RFU, UFL1 / Fold change vs veh, UFL1 / RFU, COG3 / Fold change vs veh, COG3 / RFU, DIAPH2 / Fold change vs veh, DIAPH2 / RFU, SKA2 / Fold change vs veh, SKA2 / RFU, AFF3 / Fold change vs veh, AFF3 / RFU, LMF1 / Fold change vs veh, LMF1 / RFU, IPO11 / Fold change vs veh, IPO11 / RFU, DFFB / Fold change vs veh, DFFB / RFU, FOXP1 / Fold change vs veh, FOXP1 / RFU, CARD8 / Fold change vs veh, CARD8 / RFU, STRN3 / Fold change vs veh, STRN3 / RFU, ADK / Fold change vs veh, ADK / RFU, RASSF2 / Fold change vs veh, RASSF2 / RFU, WIPF1 / Fold change vs veh, WIPF1 / RFU, LARP1B / Fold change vs veh, LARP1B / RFU, RASA1 / Fold change vs veh, RASA1 / RFU, RB1 / Fold change vs veh, RB1 / RFU, PPFIA1 / Fold change vs veh, PPFIA1 / RFU, MAT2A / Fold change vs veh, MAT2A / RFU, CCT5 / Fold change vs veh, CCT5 / RFU, WDR92 / Fold change vs veh, WDR92 / RFU, CUX1 / Fold change vs veh, CUX1 / RFU, TTC7A / Fold change vs veh, TTC7A / RFU, TMEM135 / Fold change vs veh, TMEM135 / RFU, DEPTOR / Fold change vs veh, DEPTOR / RFU, CPM / Fold change vs veh, CPM / RFU, DNAJB6 / Fold change vs veh, DNAJB6 / RFU, CACNA2D3 / Fold change vs veh, CACNA2D3 / RFU, DTX4 / Fold change vs veh, DTX4 / RFU, TFCP2 / Fold change vs veh, TFCP2 / RFU, GMCL1 /// GMCL1P1 / Fold change vs veh, GMCL1 /// GMCL1P1 / RFU, AEBP2 / Fold change vs veh, AEBP2 / RFU, SNHG1 /// SNORD22 /// SNORD25 /// SNORD26 /// SNORD27 /// SNORD28 /// SNORD29 /// SNORD31 / Fold change vs veh, SNHG1 /// SNORD22 /// SNORD25 /// SNORD26 /// SNORD27 /// SNORD28 /// SNORD29 /// SNORD31 / Fold change (Aza/veh), C12orf56 (ProbeSet 11735607_a_at) / Fold change (ACY-1035/veh), C12orf56 (ProbeSet 11735607_a_at) / Fold change (Aza/veh), FGFR1OP (ProbeSet 11751329_s_at) / Fold change (ACY-1035/veh), FGFR1OP (ProbeSet 11751329_s_at) / Fold change (Aza/veh), VPS36 (ProbeSet 11739960_a_at) / Fold change (ACY-1035/veh), VPS36 (ProbeSet 11739960_a_at) / RFU SYPL1 (11715823_x_at) / Fold change /veh SYPL1 (11715823_x_at) / RFU IGFBP7 (11715501_s_at) / Fold change /veh IGFBP7 (11715501_s_at) / RFU REEP3 (11722064_at) / Fold change /veh REEP3 (11722064_at) / RFU IGLL1 (11728026_x_at) / Fold change /veh IGLL1 (11728026_x_at): dose or concentration left out as unconfirmed
# Details: ProbeSet 11721559_s_at; LIST B
smiles,measurement,value
Nc1ccc(-c2cccs2)cc1NC(=O)c1ccc2c(c1)cc(C1CC1)n2CCN1CCOCC1 [ACY-1035],"Fold change vs veh, ZNF638 /// ZNF638-IT1",0.85
